From PubChem BioAssay (NCI)
Where “and” joins values, the source holds several entries; their conditions need not be identical. Equal entries are not always repeated.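 Cells were grown in 96-well plates and exposed to each compound for 48 hours at five concentrations; endpoints were interpolated linearly between bracketing concentrations, or set to the highest concentration if not reached. GI50 marks 50% less growth. At the TGI there is no net growth.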

Tests used:
Assay in all cases: inhibition of tumour cell growth, NCI panel, 48 h
SK-OV-3 ovarian = system: SK-OV-3 ovarian
786-0 renal = system: 786-0 renal
SN12C renal = system: SN12C renal
NCI-H522 lung = system: NCI-H522 lung
SNB-19 CNS = system: SNB-19 CNS
KM12 colon = system: KM12 colon
SF-295 CNS = system: SF-295 CNS
SK-MEL-2 melanoma = system: SK-MEL-2 melanoma
NCI-H23 lung = system: NCI-H23 lung
HCT-116 colon = system: HCT-116 colon

| SMILES | TGI (SK-OV-3 ovarian) | TGI (786-0 renal) | TGI (SN12C renal) | TGI (NCI-H522 lung) | TGI (SNB-19 CNS) | TGI (KM12 colon) | TGI (SF-295 CNS) | TGI (SK-MEL-2 melanoma) | TGI (NCI-H23 lung) | TGI (HCT-116 colon) | GI50 (786-0 renal) | GI50 (SN12C renal) | GI50 (NCI-H522 lung) | GI50 (SNB-19 CNS) | GI50 (KM12 colon) | GI50 (SF-295 CNS) | GI50 (SK-MEL-2 melanoma) | GI50 (NCI-H23 lung) | GI50 (HCT-116 colon) | GI50 (SK-OV-3 ovarian) |
| --- | --- | --- | --- | --- | --- | --- | --- | --- | --- | --- | --- | --- | --- | --- | --- | --- | --- | --- | --- | --- |
| O=C(C#Cc1ccccc1)C1=Cc2ccccc2OC1 | 30.9 µM | 6.17 µM | > 100 µM | 3.42 µM | 29.6 µM | 9.67 µM | 48.3 µM | 11.7 µM | 5.47 µM | 4.21 µM | – | – | – | – | – | – | – | – | – | – |
| N#CC(C#N)=Cc1ccc(CP(=O)(O)O)cc1 | > 100 µM | > 100 µM | > 100 µM | > 100 µM | > 100 µM | > 100 µM | > 100 µM | > 100 µM | > 100 µM | > 100 µM | – | – | – | – | – | – | – | – | – | – |
| c1ccc(SC23C4C5C6C4C2C6C53)nc1 (stereo not drawn) | > 100 µM | > 100 µM | > 100 µM | > 100 µM | > 100 µM | > 100 µM | > 100 µM | > 100 µM | > 100 µM | > 100 µM | – | – | – | – | – | – | – | – | – | – |
| CC(C)c1cccc(O)c(=O)c1 | > 100 µM | > 75 µg/mL and > 100 µM | > 75 µg/mL and > 100 µM | 28 µg/mL and > 73.1 µM | – | > 75 µg/mL and > 100 µM | 71.6 µg/mL and > 100 µM | 32.4 µg/mL and 95.7 µM | > 75 µg/mL and > 78.8 µM | > 75 µg/mL and > 40.2 µM | 5.54 µg/mL | 4.26 µg/mL | 5.16 µg/mL | 1.2 µg/mL | 2.41 µg/mL | 2.52 µg/mL | 6.86 µg/mL | 35 µg/mL | 3.81 µg/mL | – |
| CC(C)=CC(=O)N[C@H]1CC[C@]2(C)C3CC[C@]4(C)C(C(C)N(C)C)=CCC4C3CCC2[C@H]1O (stereo partly drawn) | 24.6 µM | 9.23 µM | 19.1 µM | 20.7 µM | 28.1 µM | 14.2 µM | 9.07 µM | 28.7 µM | 22.7 µM | 4.21 µM | 2.85 µM | 5.27 µM | 5.61 µM | 14.8 µM | 3.48 µM | 2.64 µM | 12.4 µM | 9.27 µM | 1.77 µM | 12.1 µM |
| O=C(Nc1ccc(F)cc1)Nc1ccc(Br)c(C(F)(F)F)c1 | 6.27 µM | 8.17 µM | 11.5 µM | 5.87 µM | 15.6 µM | 7.92 µM | 5.62 µM | 6.19 µM | 9.5 µM | 9.33 µM | 2.42 µM | 2.91 µM | 1.56 µM | 3.42 µM | 1.96 µM | 1.39 µM | 2.38 µM | 2.04 µM | 1.72 µM | 2.16 µM |
| O=C(c1ccco1)c1c(C(F)(F)F)n([O-])c2cc(C(F)(F)F)ccc2[n+]1=O | 3.13 µM | 0.998 µM | 3.45 µM | 1.17 µM | 2.99 µM | 1.19 µM | 2.83 µM | 6.73 µM | 2.62 µM | 1.31 µM | 0.479 µM | 1.29 µM | 0.54 µM | 1.47 µM | 0.516 µM | 1.29 µM | 2.62 µM | 1.15 µM | 0.23 µM | 1.65 µM |
| ClCc1ccccc1Cn1cnc2c(Cl)ncnc21 | 15.9 µM | 38.4 µM | 8.72 µM | 7.24 µM | > 100 µM | 33.2 µM | 23.3 µM | 18.1 µM | 4.34 µM | 3.69 µM | 17.7 µM | 3.37 µM | 1.82 µM | 5.38 µM | 16.6 µM | 10.5 µM | 2.76 µM | 2.02 µM | 1.91 µM | 4.19 µM |
| CCCCc1c2cnccc2c(CCCC)c2c1[nH]c1ccccc12 | 42.2 µM | 24.1 µM | 62.4 µM | 58.2 µM | 22.1 µM | 24.7 µM | 20.2 µM | 30.5 µM | 36.2 µM | 18.1 µM | – | – | – | – | – | – | – | – | – | – |
| COC(=O)Nc1nc2ccc(C(=O)c3ccccc3)cc2[nH]1 | – | > 100 µM | > 100 µM | 2.36 µM | > 100 µM | – | > 60.5 µM | 22.8 µM and > 100 µM | > 100 µM | 50.8 µM and > 36.2 µM | 0.593 µM and 0.72 µM | 1.09 µM and 0.62 µM | 0.317 µM and 0.323 µM | 0.587 µM and 0.471 µM | 0.402 µM and 0.13 µM | 0.4 µM and 0.255 µM | 0.473 µM and 0.583 µM | 0.747 µM and 1.13 µM | 0.47 µM and 0.353 µM | 0.435 µM and 0.467 µM |
| C=C1C(=O)O[C@H]2[C@H]1CC/C(COC(=O)CCCc1c[nH]c3ccccc13)=C\CC[C@@]1(C)O[C@@H]21 | 32.8 µM | 3.2 µM | 4.44 µM | 3.47 µM | 7.87 µM | 4.31 µM | 19 µM | 5.39 µM | 3.47 µM | 2.36 µM | 1.6 µM | 1.9 µM | 1.57 µM | 2.59 µM | 1.89 µM | 5.69 µM | 1.96 µM | 1.72 µM | 0.963 µM | 17.3 µM |
| Cc1c(N)nc(C(CC(N)=O)NCC(N)C(N)=O)nc1C(=O)NC(C(=O)NC(C)C(O)C(C)C(=O)NC(C(=O)NCCc1nc(-c2nc(C(=O)NCCCNC(C)c3ccccc3)cs2)cs1)C(C)O)C(OC1OC(CO)C(O)C(O)C1OC1OC(CO)C(O)C(OC(N)=O)C1O)c1cnc[nH]1 (stereo not drawn) | 45.6 µM | 43.7 µM and 33.9 µM | 29.3 µM and > 100 µM | 20 µM and 44.3 µM | 39.7 µM and > 100 µM | 50 µM and > 100 µM | 5.22 µM and 3.46 µM | 30.6 µM and > 100 µM | 8.37 µM and 64.6 µM | 49.4 µM and > 100 µM | 1.38 µM | 5.99 µM | 4.1 µM | 14.5 µM | 44.1 µM | 0.115 µM | 66.5 µM | 3.31 µM | 1.76 µM | – |
| CCn1c2c(c3ccccc31)[C@@H](c1ccc(Cl)cc1)CC1C(=O)N(c3ccccc3)C(=O)C21 (stereo partly drawn) | > 100 µM | > 100 µM | > 100 µM | > 100 µM | > 100 µM | > 100 µM | > 100 µM | > 100 µM | > 100 µM | > 100 µM | – | – | – | – | – | – | – | – | – | – |
| CO[C@H]1C[C@](C)(O)Cc2cc3c(c(O)c21)C(=O)c1c(O)cc2c(c1C3=O)O[C@@H]1O[C@@]2(C)[C@H](O)[C@@H](N(C)C)[C@@H]1O | 2.45 µM and 3.67 µM | 1.8 µM and 2.18 µM | 2.57 µM and 3.48 µM | 3.67 µM and 8.17 µM | 5.95 µM and 7.5 µM | 3.18 µM and 11.4 µM | 1.96 µM and 2.14 µM | 5.09 µM and 5.82 µM | 2.03 µM and 6.54 µM | 2.51 µM and 3.03 µM | 0.302 µM | 0.56 µM | 1.42 µM | 0.578 µM | 1.39 µM | 0.513 µM | – | – | 1.13 µM | 0.749 µM |
